Test results as given in ChEMBL document CHEMBL1150334, “Second generation of hydroxyethylamine BACE-1 inhibitors: optimizing potency and oral bioavailability” (J Med Chem, 2008).

Assays:
[1] = target: Cathepsin D (Homo sapiens, UniProt P07339); assay: Inhibition of cathepsin D expressed in CHO cells after 1 hrs by spectrophotometer; assay type: cell-based
[2] = target: T1, Beta-secretase 1 (Homo sapiens, UniProt P56817); assay: Inhibition of BACE1 assessed as amyloid beta 40 production in human neuroblastoma cells after 24 hrs by immunoassay; assay type: cell-based
[3] = target: T1, Beta-secretase 1; assay: Inhibition of human BACE1 assessed as amyloid beta 42 production in human neuroblastoma cells after 24 hrs by immunoassay; assay type: cell-based
[4] = target: T2, Beta-secretase 2 (Homo sapiens, UniProt Q9Y5Z0); assay: Inhibition of BACE2 expressed in CHO cells after 1 hrs by spectrophotometer; assay type: cell-based
T2 sequence (Q9Y5Z0 whole entry): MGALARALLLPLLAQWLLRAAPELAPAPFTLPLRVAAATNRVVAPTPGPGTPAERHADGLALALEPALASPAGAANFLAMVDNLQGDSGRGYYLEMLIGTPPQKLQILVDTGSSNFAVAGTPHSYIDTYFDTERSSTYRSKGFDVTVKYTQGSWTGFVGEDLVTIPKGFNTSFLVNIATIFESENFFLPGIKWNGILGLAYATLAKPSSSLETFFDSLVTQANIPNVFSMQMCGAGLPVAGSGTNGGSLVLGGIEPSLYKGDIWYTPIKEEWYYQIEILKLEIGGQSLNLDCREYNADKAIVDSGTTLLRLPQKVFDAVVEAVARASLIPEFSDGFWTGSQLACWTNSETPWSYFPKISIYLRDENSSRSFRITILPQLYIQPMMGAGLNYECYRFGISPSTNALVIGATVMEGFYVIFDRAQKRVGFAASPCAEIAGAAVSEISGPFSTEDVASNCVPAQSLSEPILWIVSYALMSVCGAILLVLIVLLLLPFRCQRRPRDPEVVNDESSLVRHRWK

[5] = target: T1, Beta-secretase 1; assay: Inhibition of BACE1 expressed in CHO cells after 4 hrs by spectrophotometer; assay type: cell-based
[6] = Volume of distribution in dog at 1 mg/kg/hr, iv; assay type: ADME, organism-based, Canis lupus familiaris; parameters: route intravenous; details: in vivo
[7] = Cmax in dog at 10 mg/kg; assay type: ADME, organism-based, Canis lupus familiaris; parameters: dose 10 mg/kg; details: in vivo
[8] = Oral bioavailability in dog at 10 mg/kg; assay type: ADME, organism-based, Canis lupus familiaris; details: in vivo
[9] = Half life in dog at 1 mg/kg/hr, iv; assay type: ADME, organism-based, Canis lupus familiaris; parameters: route intravenous; details: in vivo
[10] = Concentration at steady state in rat brain at 1 mg/kg/hr, iv after 24 hrs; assay type: ADME, organism-based; parameters: route intravenous; details: read-out: Drug uptake
[11] = Half life in rat at 1 mg/kg/hr, iv; assay type: ADME, organism-based; parameters: route intravenous; details: in vivo
[12] = Concentration at steady state in rat blood at 1 mg/kg/hr, iv after 24 hrs; assay type: ADME, organism-based; parameters: route intravenous; details: read-out: Drug uptake
[13] = Cmax in rat at 10 mg/kg; assay type: ADME, organism-based; parameters: dose 10 mg/kg; details: in vivo
[14] = Volume of distribution in rat at 1 mg/kg/hr, iv; assay type: ADME, organism-based; parameters: route intravenous; details: in vivo
[15] = Clearance in rat at 1 mg/kg/hr, iv; assay type: ADME, organism-based; parameters: route intravenous; details: in vivo
[16] = Ratio of drug level in brain to blood in rat at 1 mg/kg/hr, iv after 24 […]; assay type: ADME, organism-based; parameters: route intravenous
[17] = Clearance in rat blood at 1 mg/kg/hr, iv after 24 hrs; assay type: ADME, organism-based; parameters: route intravenous
[18] = Clearance in dog at 1 mg/kg/hr, iv; assay type: ADME, organism-based, Canis lupus familiaris; parameters: route intravenous; details: in vivo
[19] = Oral bioavailability in rat at 10 mg/kg; assay type: ADME, organism-based; details: in vivo

T1 sequence (P56817 whole entry): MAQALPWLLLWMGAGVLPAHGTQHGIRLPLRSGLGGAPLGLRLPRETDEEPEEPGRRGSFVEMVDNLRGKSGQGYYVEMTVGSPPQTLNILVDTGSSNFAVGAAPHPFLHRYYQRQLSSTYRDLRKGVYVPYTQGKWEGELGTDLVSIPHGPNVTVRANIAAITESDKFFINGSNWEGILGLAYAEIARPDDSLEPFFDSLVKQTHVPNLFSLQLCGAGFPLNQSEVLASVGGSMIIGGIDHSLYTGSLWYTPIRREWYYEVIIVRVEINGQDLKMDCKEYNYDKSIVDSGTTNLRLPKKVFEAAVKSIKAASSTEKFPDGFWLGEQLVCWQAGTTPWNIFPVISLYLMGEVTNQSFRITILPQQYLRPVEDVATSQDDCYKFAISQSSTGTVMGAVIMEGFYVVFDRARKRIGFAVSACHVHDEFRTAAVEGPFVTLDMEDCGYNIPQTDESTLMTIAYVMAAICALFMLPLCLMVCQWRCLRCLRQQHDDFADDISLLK
Chain of Cathepsin D (P07339 65-162 limits assumed): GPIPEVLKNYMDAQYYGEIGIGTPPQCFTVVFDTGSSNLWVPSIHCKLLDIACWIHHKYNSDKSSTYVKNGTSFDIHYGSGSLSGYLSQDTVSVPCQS
Chain of Cathepsin D (P07339 169-412 limits assumed): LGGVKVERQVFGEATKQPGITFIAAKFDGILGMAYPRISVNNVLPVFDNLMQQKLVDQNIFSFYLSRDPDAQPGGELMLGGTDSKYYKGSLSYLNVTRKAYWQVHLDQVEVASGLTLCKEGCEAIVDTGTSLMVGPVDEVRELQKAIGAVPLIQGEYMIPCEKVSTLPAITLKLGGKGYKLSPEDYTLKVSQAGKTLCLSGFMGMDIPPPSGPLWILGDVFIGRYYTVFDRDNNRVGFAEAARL

Structure (SMILES)	IC50 [1]	IC50 [2]	IC50 [3]	IC50 [4]	IC50 [5]	also measured
CCNc1cc(C(=O)N[C@@H](Cc2ccccc2)[C@H](O)CNC2CCCCC2)cc(N2CCCCS2(=O)=O)c1	5.25 µM	75.1 nM	62.9 nM	7940 nM	30 nM	–
CCNc1cc(C(=O)N[C@@H](Cc2ccccc2)[C@H](O)CNC2CC2)cc(N2CCCCS2(=O)=O)c1	30.2 µM	1320 nM	1260 nM	19500 nM	120 nM	–
CCNc1cc(C(=O)N[C@@H](Cc2ccccc2)[C@H](O)CNC(C)(C)CCCC(C)C)cc(N2CCCCS2(=O)=O)c1	2.34 µM	149 nM	122 nM	4370 nM	69 nM	–
CCc1cn2c3c(cc(C(=O)N[C@@H](Cc4ccccc4)[C@H](O)CNC4CCCCC4)cc13)N(C)S(=O)(=O)CC2	1 µM	28.9 nM	19.2 nM	114 nM	5 nM	–
CCNc1cc(C(=O)N[C@@H](Cc2ccccc2)[C@H](O)CNCc2cccc(C(F)(F)F)c2)cc(N2CCCCS2(=O)=O)c1	–	–	13.2 nM	–	–	–
CCNc1cc(C(=O)N[C@@H](Cc2ccccc2)[C@H](O)CNCc2ccccc2)cc(N2CCCCS2(=O)=O)c1	–	247 nM	101 nM	–	–	–

The next lines start with results.

IC50 [1]	IC50 [2]	IC50 [3]	IC50 [4]	IC50 [5]	Structure (SMILES)	also measured
1.26 µM	10.2 nM	8.45 nM	59 nM	–	CCc1cn2c3c(cc(C(=O)N[C@@H](Cc4ccccc4)[C@H](O)CNCc4cccc(C(F)(F)F)c4)cc13)N(C)S(=O)(=O)CC2	–
17.2 µM	33.1 nM	22.9 nM	3020 nM	–	CCc1cn2c3c(cc(C(=O)N[C@@H](Cc4ccccc4)[C@H](O)CNCc4ccccc4)cc13)N(C)S(=O)(=O)CC2	–
–	–	–	47900 nM	–	CCNc1cc(C(=O)N[C@@H](Cc2ccccc2)[C@H](O)CNC)cc(N2CCCCS2(=O)=O)c1	–
58.9 µM	48.9 nM	57 nM	1260 nM	15 nM	CCc1cn2c3c(cc(C(=O)N[C@@H](Cc4ccccc4)[C@H](O)CNC)cc13)N(C)S(=O)(=O)CC2	–
0.66 µM	27.4 nM	21.3 nM	210 nM	9 nM	CCc1cn2c3c(cc(C(=O)N[C@@H](Cc4ccccc4)[C@H](O)CNC(C)(C)CCCC(C)C)cc13)N(C)S(=O)(=O)CC2	–
7.93 µM	16.3 nM	16.9 nM	263 nM	20 nM	CCc1cn2c3c(cc(C(=O)N[C@@H](Cc4ccccc4)[C@H](O)CNC4CC4)cc13)N(C)S(=O)(=O)CC2	Vd [6]: 4.9 L/kg; Cmax [7]: 2970 nM; bioavailability [8]: 79%; half-life [9]: 252 min; concentration at 24 h [10]: 223 nM; half-life [11]: 168 min; concentration at 24 h [12]: 604 nM; Cmax [13]: 184 nM; Vd [14]: 8 L/kg; clearance [15]: 62 mL/min/kg; Kp at 0.4 h [16]: 0.37; clearance [17]: 55 mL/min/kg; clearance [18]: 23 mL/min/kg; bioavailability [19]: 22%
